According to patent publication US5604226A, “Pyridazinone derivatives, processes for production thereof and use thereof” (Nihon Nohyaku Co., Ltd., priority 1993, dated 1997):

Key:
[1] = test system: ADP-inducing platelet aggregation; experiment: Rabbit exo-vivo test, ADP-inducing platelet aggregation after oral administration (Experiment 2); format: in vivo, Japanese white rabbits
Experimental: Japanese white rabbits weighing 3.0-4.0 kg were fasted for 18 hours. A drug suspension in 2% gum arabic aqueous solution was orally given to the animal in a definite dose. Blood was collected 1 and 4 hours after. PRP was prepared in a manner similar to Experiment 1 and ADP-inducing platelet aggregation function was determined. An inhibition rate was calculated based on an aggregation rate of ADP prior to administration of the compound.

[2] = test system: thrombocytopenia in mice (collagen-induced, platelet count); experiment: Activity of preventing thrombocytopenia in mice, collagen i.v. (Experiment 3); format: in vivo, male ddY mice; details: Mus musculus, 3.0 mg/kg oral, 1 hour before collagen 0.5 mg/kg i.v., * p = 5%, ** p = 1%, *** p = 0.1%, read-out: Average Inhibition Rate (platelet count; normal mouse 100, control mouse 0)
Experimental: Activity of preventing thrombocytopenia in mice:
Collagen (Holm Co.) diluted with physiological saline was intravenously given through the vein to male ddY mice of 6 weeks old, weighing 28-31 g, which had been fasted for 4-5 hours, in a dose of 0.5 mg/kg. Five minutes after, blood was collected from the lower thigh vein under pentobarbital anesthesia through a plastic syringe treated with heparin containing 3.8% sodium citrate. The drug was orally given an hour before the collagen administration. The platelet count was measured with Sysmex E-4000. The inhibition activity is shown in terms of percentage of the platelet count when the platelet count of normal mouse was made 100 and the platelet count of control mouse was made 0.

[3] = test system: Platelet aggregation (ADP, rabbit platelet rich plasma); experiment: Platelet aggregation inhibition in rabbit PRP, ADP-induced, Born's turbidimetry (Experiment 1); format: cell-based; details: Oryctolagus cuniculus, 0.05 h, ADP 2 to 4 μM, 3 min incubation, read-out: Aggregation Inhibition Rate
Experimental: Blood was collected from the ear vein of rabbit, together with 1/10 volume sodium citrate. Centrifugation at 1,200 rpm for 10 minutes gave the supernatant which was made platelet rich plasma (PRP). The blood was further centrifuged at 3,000 rpm for 10 minutes to give platelet poor plasma (PPP). The platelet count of PRP was adjusted to 300,000/μl with PPP, which was provided for the test. Platelet aggregation was determined with aggregometer (HEMATRACERVI, Niko Bioscience Co.) based on Born's turbidimetry. That is, 200 μl of PRP was charged in a cell and 1 μl of a drug solution dissolved in dimethylsulfoxide was added thereto. After incubation for 3 minutes, ADP was added in a concentration of 2 to 4 μM to cause aggregation. Change in transmittance in the cell was then monitored. The results are shown in Table 2, in terms of aggregation inhibition rate which was determined by comparing a transmittance of control with that obtained at the maximum aggregation on an aggregation curve when the transmittance of PRP was made 0% and the transmittance of PPP was made 100%.

| SMILES | Average Inhibition Rate ([1]; 3 mg/kg oral, 1 Hour) [%] | Average Inhibition Rate ([1]; 3 mg/kg oral, 4 Hours) [%] | Average Inhibition Rate ([1]; 30 mg/kg oral, 1 Hour) [%] | Average Inhibition Rate ([1]; 30 mg/kg oral, 4 Hours) [%] | inhibition in vivo at 3 mg/kg [2] [%] | inhibition at 1 µg/mL ([3]; 10^-6 g/ml) [%] | inhibition at 0.1 µg/mL ([3]; 10^-7 g/ml) [%] |
| --- | --- | --- | --- | --- | --- | --- | --- |
| COc1ccc(CNc2c(OCCCc3ccccc3)n[nH]c(=O)c2Br)cc1OC [C, reference compound] | 20 | 23 | 36 | 35 | 27.4 |  |  |
| COc1ccc(CNc2c(OCC[S+]([O-])c3ccccc3)n[nH]c(=O)c2Br)cc1OC (stereo not drawn) [Compound 8, 4-bromo-5-(3,4-dimethoxyphenylmethylamino)-6-[2-(phenylsulfinyl)ethyloxy]-3(2H)-pyridazinone] | 48 | 23 | 72 | 70 | 45 | 100 | 82 |
